Legend:
Assay in all cases: relative viability (nuclei count vs DMSO), 5 days (fraction); higher = more cells survive
NCI-H596 = test system: NCI-H596
How it was run: (§1)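 Lung cancer cell lines in 1536-well plates were dosed by pin tool the day after seeding, either with one drug alone or with a fixed anchor-drug dose plus five library-drug doses (not always all listed) in √10 steps. After 5 days, cells were fixed and their nuclei stained in one step (final 0.05% Triton X-100, 1% formaldehyde, 1 ug/ml Hoechst), then counted on 4× images. Relative viability is the nuclei count in treated wells divided by that in vehicle wells. Values are medians of duplicate plates.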

NCI-H1437 = test system: NCI-H1437
How it was run: as §1

NCI-H1792 = test system: NCI-H1792
How it was run: as §1

COR-L 105 = test system: COR-L 105
How it was run: as §1

NCI-H838 = test system: NCI-H838
How it was run: as §1

LK-2 = test system: LK-2
How it was run: as §1

NCI-H441 = test system: NCI-H441
How it was run: as §1

LCLC-103H = test system: LCLC-103H
How it was run: as §1

EKVX = test system: EKVX
How it was run: as §1

201T = test system: 201T
How it was run: as §1

SW 900 = test system: SW 900
How it was run: as §1

HARA = test system: HARA
How it was run: as §1

NCI-H23 = test system: NCI-H23
How it was run: as §1

**Q.** How did the relative viability (NCI-H596; first compound 1.265 µM) turn out when COc1cc(N2CCC(C(N)=O)CC2)ccc1Nc1nc(N)c(Cl)c(Nc2ccccc2S(=O)(=O)C(C)C)n1 [HG-5-88-01] + Nc1nc2[nH]cc(CCc3ccc(C(=O)N[C@@H](CCC(=O)O)C(=O)O)cc3)c2c(=O)[nH]1 [Pemetrexed] (partner 0.2 µM) was run?
**A.** 0.482

**Q.** What about the relative viability (NCI-H596; first compound 4 µM) of the same compound?
**A.** 0.441

**Q.** What about the relative viability (NCI-H1437; first compound 0.04 µM) of the same compound?
**A.** 0.296

**Q.** And the relative viability (NCI-H1437; first compound 0.1265 µM)?
**A.** 0.334

**Q.** What about the relative viability (NCI-H1437; first compound 0.4 µM) of the same compound?
**A.** 0.267

**Q.** What about the relative viability (NCI-H1437; first compound 1.265 µM) of the same compound?
**A.** 0.327

**Q.** And the relative viability (NCI-H1437; first compound 4 µM)?
**A.** 0.277

**Q.** What about the relative viability (NCI-H1792; first compound 0.04 µM) of the same compound?
**A.** 0.769

**Q.** What about the relative viability (NCI-H1792; first compound 0.1265 µM) of the same compound?
**A.** 0.825

**Q.** And the relative viability (NCI-H1792; first compound 0.4 µM)?
**A.** 0.751

**Q.** What about the relative viability (NCI-H1792; first compound 1.265 µM) of the same compound?
**A.** 0.832

**Q.** What about the relative viability (NCI-H1792; first compound 4 µM) of the same compound?
**A.** 0.76

**Q.** What about the relative viability (COR-L 105; first compound 0.04 µM) of the same compound?
**A.** 1.02

**Q.** What about the relative viability (COR-L 105; first compound 0.1265 µM) of the same compound?
**A.** 1.21

**Q.** What about the relative viability (COR-L 105; first compound 0.4 µM) of the same compound?
**A.** 1.18

**Q.** And the relative viability (COR-L 105; first compound 1.265 µM)?
**A.** 0.989

**Q.** And the relative viability (COR-L 105; first compound 4 µM)?
**A.** 0.899

**Q.** What about the relative viability (NCI-H838; first compound 0.04 µM) of the same compound?
**A.** 0.248

**Q.** And the relative viability (NCI-H838; first compound 0.1265 µM)?
**A.** 0.256

**Q.** And the relative viability (NCI-H838; first compound 0.4 µM)?
**A.** 0.209

**Q.** And the relative viability (NCI-H838; first compound 1.265 µM)?
**A.** 0.234

**Q.** What about the relative viability (NCI-H838; first compound 4 µM) of the same compound?
**A.** 0.246

**Q.** What about the relative viability (LK-2; first compound 0.04 µM) of the same compound?
**A.** 0.159

**Q.** What about the relative viability (LK-2; first compound 0.1265 µM) of the same compound?
**A.** 0.295

**Q.** And the relative viability (LK-2; first compound 0.4 µM)?
**A.** 0.249

**Q.** What about the relative viability (LK-2; first compound 4 µM) of the same compound?
**A.** 0.202

**Q.** And the relative viability (NCI-H441; first compound 0.04 µM)?
**A.** 0.28

**Q.** What about the relative viability (NCI-H441; first compound 0.1265 µM) of the same compound?
**A.** 0.279

**Q.** And the relative viability (NCI-H441; first compound 0.4 µM)?
**A.** 0.229

**Q.** And the relative viability (NCI-H441; first compound 1.265 µM)?
**A.** 0.276

**Q.** And the relative viability (NCI-H441; first compound 4 µM)?
**A.** 0.258

**Q.** What about the relative viability (LCLC-103H; first compound 0.04 µM) of the same compound?
**A.** 0.443

**Q.** What about the relative viability (LCLC-103H; first compound 0.1265 µM) of the same compound?
**A.** 0.505

**Q.** What about the relative viability (LCLC-103H; first compound 0.4 µM) of the same compound?
**A.** 0.462

**Q.** And the relative viability (LCLC-103H; first compound 1.265 µM)?
**A.** 0.492

**Q.** And the relative viability (LCLC-103H; first compound 4 µM)?
**A.** 0.33

**Q.** And the relative viability (EKVX; first compound 0.04 µM)?
**A.** 0.468

**Q.** And the relative viability (EKVX; first compound 0.1265 µM)?
**A.** 0.407

**Q.** What about the relative viability (EKVX; first compound 0.4 µM) of the same compound?
**A.** 0.301

**Q.** And the relative viability (EKVX; first compound 4 µM)?
**A.** 0.352

**Q.** And the relative viability (201T; first compound 0.04 µM)?
**A.** 0.301

**Q.** And the relative viability (201T; first compound 0.1265 µM)?
**A.** 0.325

**Q.** What about the relative viability (201T; first compound 1.265 µM) of the same compound?
**A.** 0.332

**Q.** What about the relative viability (201T; first compound 4 µM) of the same compound?
**A.** 0.272

**Q.** What about the relative viability (SW 900; first compound 0.04 µM) of the same compound?
**A.** 0.504

**Q.** And the relative viability (SW 900; first compound 0.1265 µM)?
**A.** 0.512

**Q.** And the relative viability (SW 900; first compound 0.4 µM)?
**A.** 0.46

**Q.** And the relative viability (SW 900; first compound 1.265 µM)?
**A.** 0.477

**Q.** And the relative viability (SW 900; first compound 4 µM)?
**A.** 0.379

**Q.** What about the relative viability (HARA; first compound 0.04 µM) of the same compound?
**A.** 0.221

**Q.** And the relative viability (HARA; first compound 0.1265 µM)?
**A.** 0.225

**Q.** And the relative viability (HARA; first compound 0.4 µM)?
**A.** 0.199

**Q.** And the relative viability (HARA; first compound 1.265 µM)?
**A.** 0.24

**Q.** What about the relative viability (HARA; first compound 4 µM) of the same compound?
**A.** 0.201

**Q.** And the relative viability (NCI-H23; first compound 0.04 µM)?
**A.** 0.678

**Q.** And the relative viability (NCI-H23; first compound 0.1265 µM)?
**A.** 0.77

**Q.** What about the relative viability (NCI-H23; first compound 0.4 µM) of the same compound?
**A.** 0.592

**Q.** What about the relative viability (NCI-H23; first compound 1.265 µM) of the same compound?
**A.** 0.56

**Q.** And the relative viability (NCI-H23; first compound 4 µM)?
**A.** 0.385
